Type in all cases: cell-based
The subject of experiment [1] is KRAS-G12D mutant tumor cells AGS. The experiment in a line: Cell Proliferation Inhibition Assay (AGS), Cell-titer GLO, 96 h. The note with it: AGS cells, 96 h incubation, Cell-titer GLO, read-out: AGS(G12D). In outline:
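AGS cells (KRAS-G12D) grown in low-attachment plates were exposed to compound for 96 h at 37°C. Viability was read by CellTiter-Glo luminescence and converted to % inhibition against max and blank wells. IC50 came from curve fitting.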

Experiment [2] concerns KRAS-G12V mutant tumor cells SW620. The experiment in a line: Cell Proliferation Inhibition Assay (SW620), Cell-titer GLO, 96 h. The note with it: SW620 cells, 96 h incubation, Cell-titer GLO, read-out: SW620(G12V). The gist of the method: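 SW620 cells (1×10^3/well, low-attachment) were exposed to compound from 10000 to 0.03 nM (0.5% DMSO) for 96 h at 37°C. Viability was read by Cell-titer GLO luminescence. Inhibition was calculated relative to DMSO and blank wells, and IC50 obtained by curve fitting.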

The target of the next experiment is T1, KRAS G12D-cRAF (Homo sapiens, UniProt P01116, G12D).
T1 construct: expressed in transfected cells
The experiment in a line: Cellular KRAS G12D-cRAF Binding Inhibition Assay (NanoBRET, AD293 stable cells). As to conditions: 3 h incubation, read-out: NanoBRET KRAS G12D. In outline:
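AD293 cells stably expressing KRAS G12D-NanoLuc and cRAF RBD-HaloTag were seeded at 1×10^4 cells/well with NanoBRET 618 ligand overnight. BRET signal was converted to % inhibition of binding relative to max and blank wells, and IC50 came from curve fitting.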
On the technique in general: Bioluminescence resonance energy transfer reports proximity on the nanometre scale.

A further experiment concerns the target T2, KRAS G12V-cRAF (Homo sapiens, UniProt P01116, G12V).
T2 construct: expressed in transfected cells
The experiment in a line: Cellular KRAS G12V-cRAF Binding Inhibition Assay (NanoBRET, AD293 stable cells). As to conditions: 3 h incubation, read-out: NanoBRET KRAS G12V. In outline:
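Live AD293 stable cells, NanoLuc donor with HaloTag NanoBRET 618 ligand acceptor added overnight. Inhibition percent from luminescence relative to max signal and medium blank; IC50 from curve fitting.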

Data on 11 compounds can be found in patent EP4800018A1, “PAN-KRAS INHIBITOR AND USE THEREOF IN MEDICINES” (Betta Pharmaceuticals Co., Ltd., priority 2023, dated 2025).

Each structure is given as a SMILES string. Like-named read-outs stand apart in the source and are kept apart here.

T2 sequence (P01116 1-188 isoform P01116-2 G12V): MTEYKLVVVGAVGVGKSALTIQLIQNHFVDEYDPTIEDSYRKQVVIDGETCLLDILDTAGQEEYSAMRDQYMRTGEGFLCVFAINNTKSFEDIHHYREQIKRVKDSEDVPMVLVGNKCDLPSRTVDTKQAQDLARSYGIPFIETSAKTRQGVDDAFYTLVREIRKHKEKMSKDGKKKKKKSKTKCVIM
T1 sequence (P01116 1-188 isoform P01116-2 G12D): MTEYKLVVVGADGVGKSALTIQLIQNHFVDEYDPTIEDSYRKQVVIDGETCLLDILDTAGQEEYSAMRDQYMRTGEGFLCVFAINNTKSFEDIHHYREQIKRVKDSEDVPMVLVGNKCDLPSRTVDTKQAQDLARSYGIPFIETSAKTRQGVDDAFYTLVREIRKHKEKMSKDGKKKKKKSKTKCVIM

As to `CC1OCCCn2c(c3c4cc(ccc42)-c2csc(n2)CC(NC(=O)C2CC2C(F)F)C(=O)N2CCCC(N2)C(=O)OCC(C)(C)C3)-c2cc(N3CC[S+]([O-])CC3)cnc21` [Example 134, (1S,2S)-2-(difluoromethyl)-N-(((1^5S,6^3S,4S,Z)-1^5,10,10-trimethyl-1^2-(1-oxidothiomorpholino)-5,7-dioxo-1^8,1^9,6^1,6^2,6^3,6^4,6^5,6^6-octahydro-1^5H,1^7H-8-oxa-1(13,15)-pyrido[3',2':7,8][1,5]oxazonino[5,6-alindola-2(4,2)-thiazola-6(1,3)-pyridazinacycloundecaphane-4-yl)cyclopropane-1-carboxamide], the IC50 in experiment [1] (Homo sapiens, AGS, 96 h) came to 1.7 nM; in experiment [2] (Homo sapiens, SW-620, 96 h), 1.44 nM; at KRAS G12D-cRAF, 13.7 nM; at KRAS G12V-cRAF, 59 nM.
Take `COC1CCN(c2cnc3c(c2)-c2c4c5cc(ccc5n2CCCOC3C)-c2csc(n2)CC(NC(=O)C2CC2C(F)F)C(=O)N2CCCC(N2)C(=O)OCC(C)(C)C4)C1` [Example 135, (1S,2S)-2-(difluoromethyl)-N-((1^5S,6^3S,4S,Z)-1^2-((R)-3-methoxypyrrolidin-1-yl)-1^5,10,10-trimethyl-5,7-dioxo-1^8, 1^9,6^1 ,6^2,6^3,6^4,6^5 ,6^6-octahydro-1^5H,1^7H-8-oxa-1(13,15)-pyrido[3',2':7,8][1,5]oxazonino[5,6-a]indola-2(4,2)-thiazola-6(1,3)-pyridazinacycloundecaphane-4-yl)cyclopropane-1-car boxamide]: the IC50 amounted to 2.2 nM in experiment [1], 0.7 nM in experiment [2], 2.39 nM on KRAS G12D-cRAF and 10.6 nM at KRAS G12V-cRAF.
As to `COC1CCN(c2cnc3c(c2)-c2c4c5cc(ccc5n2CCCOC3C)-c2csc(n2)CC(NC(=O)C2CC2C(F)F)C(=O)N2CCCC(N2)C(=O)OCC(C)(C)C4)C1` [Example 136, (1S,2S)-2-(difluoromethyl)-N-((1^5S,6^3S,4S,Z)-1^2-((S)-3-methoxypyrrolidin-1-yl)-1^5,10,10-trimethyl-5,7-dioxo-1^8,1^9,6^1,6^2,6^3,6^4,6^5,6^6-octahydro-1^5H,1^7H-8-oxa-1(13,15)-pyrido[3',2':7,8][1,5]oxazonino[5,6-alindola-2(4,2)-thiazola-6(1,3)-pyridazinacycloundecaphane-4-yl)cyclopropane-1-carboxamide], the IC50 in experiment [1] came out at 5.6 nM; in experiment [2] it was 1.5 nM; on KRAS G12D-cRAF it was 4.59 nM; on KRAS G12V-cRAF it was 19.6 nM.
Take `CC1OCCCn2c(c3c4cc(ccc42)-c2csc(n2)CC(NC(=O)C2CC2C(F)F)C(=O)N2CCCC(N2)C(=O)OCC(C)(C)C3)-c2cc(N3CCN(C)C(C)C3)cnc21` [Example 138, (1S,2S)-2-(difluoromethyl)-N-((1^5S,6^3S,4S,Z)-1^2-((R)-3,4-dimethylpiperazin-1-yl)-1^5,10,10-trimethyl-5,7-dioxo-1^8,1^9,6^1,6^2,6^3,6^4,6^5,6^6-octahydro-1^5H,1^7H-8-oxa-1(13,15)-pyrido[3',2':7,8][1,5]oxazonino[5,6-a]indola-2(4,2)-thiazola-6(1,3)-pyridazinacycloundecaphane-4-yl)cyclopropane-1-carboxamide]: the IC50 came out at 1.59 nM in experiment [1] (Homo sapiens, AGS, 96 h); 0.63 nM in experiment [2] (Homo sapiens, SW-620, 96 h); 3.2 nM on KRAS G12D-cRAF; 14.7 nM at KRAS G12V-cRAF.
Take `CC1OCCCn2c(c3c4cc(ccc42)-c2csc(n2)CC(NC(=O)C2CC2C(F)F)C(=O)N2CCCC(N2)C(=O)OCC(C)(C)C3)-c2cc(N3CC(C)N(C)C(C)C3)cnc21` [Example 140, (1S,2S)-2-(difluoromethyl)-N-((1^5S,6^3S,4S,Z)-1^5,10,10-trimethyl-5,7-dioxo-1^2-((3S,5R)-3,4,5-trimethylpiperazin-1-yl)-1^8,1^9,6^1,6^2,6^3,6^4,6^5,6^6-octahydro-1^5H,1^7H-8-oxa-1(13,15)-pyrido[3',2':7,8] [1,5]oxazonino[5,6-a]indola-2(4,2)-thiazola-6(1,3)-pyridazinacycloundecaphane-4-yl)cyclopropane-1-carboxamide]: the IC50 turned out to be 0.38 nM in experiment [1] (Homo sapiens, AGS, 96 h); 0.14 nM in experiment [2] (Homo sapiens, SW-620, 96 h); 1.8 nM on KRAS G12D-cRAF; 9.3 nM at KRAS G12V-cRAF.
For `CC1OCCCn2c(c3c4cc(ccc42)-c2csc(n2)CC(NC(=O)C2CC2C(F)F)C(=O)N2CCCC(N2)C(=O)OCC(C)(C)C3)-c2cc(N3CC(C)N(C)C(C)C3)cnc21` [Example 142, (1S,2S)-2-(difluoromethyl)-N-((1^5S,6^3S,4S,Z)-1^5,10,10-trimethyl-5,7-dioxo-1^2-((3S,5S)-3,4,5-trimethylpiperazin-1-yl)-1^8,1^9,6^1,6^2,6^3,6^4,6^5,6^6-octahydro-1^5H,1^7H-8-oxa-1(13,15)-pyrido[3',2':7,8] [1,5]oxazonino[5,6-a]indola-2(4,2)-thiazola-6(1,3)-pyridazinacycloundecaphane-4-yl)cyclopropane-1-carboxamide], the IC50 was 0.3 nM in experiment [1], 0.09 nM in experiment [2], 1.88 nM at KRAS G12D-cRAF and 5.61 nM on KRAS G12V-cRAF.
With `CC1OCCCn2c(c3c4cc(ccc42)-c2coc(n2)CC(NC(=O)C2CC2C(F)F)C(=O)N2CCCC(N2)C(=O)OCC(C)(C)C3)-c2cc(N3CCOCC3)cnc21` [Example 146, (1S,2S)-2-(difluoromethyl)-N-((1^5S,6^3S,4S,Z)-1^5,10,10-trimethyl-1^2-morpholino-5,7-dioxo-1^8,1^9, 6^1,6^2,6^3,6^4,6^5 6-octahydro-1^5H,1^7H-8-oxa-1(13,15)-pyrido[3',2':7,8][1,5]oxazonino[5,6-a]indola-2(4,2)-oxazola-6(1,3)-pyridazinacycloundecaphane-4-yl)cyclopropane-1-carboxamide], the IC50 in experiment [1] (Homo sapiens, AGS, 96 h) came to 1.4 nM; in experiment [2] (Homo sapiens, SW-620, 96 h) it was 0.6 nM; at KRAS G12D-cRAF, 1.97 nM; on KRAS G12V-cRAF, 8.52 nM.
The corresponding values for `CCN1CCN(c2cnc3c(c2)-c2c4c5cc(ccc5n2CCCOC3C)-c2csc(n2)CC(NC(=O)C(C(C)C)N(C)C(=O)N2CCOCC2)C(=O)N2CCCC(N2)C(=O)OCC(C)(C)C4)CC1` [Example 149, N-((2S)-1-(((1^5S,6^3S,4S,Z)-1^2-(4-ethylpiperazin-1-yl)-1^5,10,10-trimethyl-5,7-dioxo-1^8,1^9,6^1,6^2,6^3 ,6^4,6^5,6^6-octahydro-1^5H,1^7H-8-oxa-1(13,15)-pyrido[3',2':7,8][1,5]oxazonino[5,6-a]indola-2(4,2)-thiazola-6(1,3)-pyridazinacycloundecaphane-4-yl)amino)-3-methyl-1-oxobutan-2-yl)-N-methyl morpholine-4-carboxamide] are 3.19 nM, 1.09 nM, 3.48 nM and 10.9 nM.
As for `CC1OCCCn2c(c3c4cc(ccc42)-c2csc(n2)CC(NC(=O)C2CC2C(F)F)C(=O)N2CCCC(N2)C(=O)OCC(C)(C)C3)-c2cc(N3CC4CCC3CN4C)cnc21` [Example 154, (1S,2S)-2-(difluoromethyl)-N-((1^5S,6^3S,4S,Z)-1^5,10,10-trimethyl-1^2-(5-methyl-2,5-diazabicyclo[2.2.2]octan-2-yl)-5,7-dioxo-1^8,1^9,6^1,6^2,6^3,6^4,6^5,6^6-octahydro-1^5H,1^7H-8-oxa-1(13,15)-pyrido[3',2 ':7,8][1,5]oxazonino[5,6-a]indola-2(4,2)-thiazola-6(1,3)-pyridazinacycloundecaphane-4-yl)cyclo propane-1-carboxamide], the IC50 in experiment [1] (Homo sapiens, AGS, 96 h) was found to be 1.95 nM; in experiment [2] (Homo sapiens, SW-620, 96 h), 0.91 nM; at KRAS G12D-cRAF, 4.2 nM; at KRAS G12V-cRAF, 19.3 nM.
For `CC1OCCCn2c(c3c4cc(ccc42)-c2csc(n2)CC(NC(=O)C2C(C)C2C)C(=O)N2CCCC(N2)C(=O)OCC(C)(C)C3)-c2cc(OCCN3CCOCC3)cnc21` [Example 158, (1r,2R,3S)-2,3-dimethyl-N-((1^5S,6^3S,4S,Z)-1^5,10,10-trimethyl-1^2-(2-morpholinoethoxy)-5,7-dioxo-1^8,1^9,6^1,6^26^3,6^4,6^5,6^6-octahydro-1^5H,1^7H-8-oxa-1(13,15)-pyrido[3',2':7,8][1,5]oxazonino[5,6-a]indola-2(4,2)-thiazola-6(1,3)-pyridazinacycloundecaphane-4-yl)cyclopropane-1-carboxamide], the IC50 in experiment [1] (Homo sapiens, AGS, 96 h) worked out at 0.58 nM; in experiment [2] (Homo sapiens, SW-620, 96 h), 0.11 nM; on KRAS G12D-cRAF, 1.01 nM; on KRAS G12V-cRAF, 5.06 nM.
The corresponding values for `CCN1CCN(c2cnc3c(c2)-c2c4c5cc(ccc5n2CCCOC3C)-c2csc(n2)CC(NC(=O)C2C(C)C2C)C(=O)N2CCCC(N2)C(=O)OCC(C)(C)C4)CC1` [Example 159, (1r,2R,3S)-N-((1^5S,6^3S,4S,Z)-1^2-(4-ethylpiperazin-1-yl)-1^5,10,10-trimethyl-5,7-dioxo-1^8,1^9,6^1,6^2 ,6^3,6^4,6^5,6^6-octahydro-1^5H,1^7H-8-oxa-1(13,15)-pyrido[3',2':7,8][1,5]oxazonino[5,6-a]indola-2(4, 2)-thiazola-6(1,3)-pyridazinacycloundecaphane-4-yl)-2,3-dimethylcyclopropane-1-carboxamide] are 0.21 nM, 0.06 nM, 0.38 nM and 3.83 nM.
